We go through six compounds from patent US20230141783A1, “DIFFERENT FORMS OF 6-CHLORO-2-ETHYL-N-(4-(4-(4-(TRIFLUOROMETHOXY)PHENYL)PIPERIDINE-1-YL)BENZYL)IMIDAZO[1,2-A]PYRIDINE-3-CARBOXAMIDE” (priority 2019, published 2023).

Entries after “also recorded” stand apart in the source; their conditions may differ. Where two headings read alike, the source gives them in different places.

A short description of data set [1]: Stability under accelerated conditions 40° C./75% RH (HPLC). Format: physicochemical.
A short description of data set [2]: Long-term stability at 25° C./60% RH (HPLC). Format: physicochemical. Particulars: for long-term storage stability: 25° C. and 60% RH for up to 60 months, ditosylate; for Purity [%] (as measured by HPLC): 25° C./60% RH.
Another data set is described as follows: DVS water absorption. The note with it: 90% RH at RT. The class given is physicochemical. From the text: (FIGS. 4-5). It is the predominant form obtained in slurry experiments. Conversion from Form A to other XRPD patterns was mainly obtained from methanol (to Form C) or water (to pattern B) in the slurry medium. However, as it will be shown in further sections, Form C is converted to Form A upon re-slurry in the majority of other solvents (than methanol).
FIGS. 9 to 11 show XRPD, DSC, and TGA of a solid with Form C. […] The XRPD peaks of pattern C are sharper than those of Form A. Form C is the predominant form when methanol is used as the slurry medium. However, Form “C” is not a methanol solvate form of the di-tosylate salt. Many reactive crystallization experiments using different solvents generated Form C immediately after salt formation.

A short description of data set [3]: Exposing Forms A and C in 100% RH at RT (XRPD/DSC). Particulars: 100% RH at RT for 6 days. The class given is physicochemical. The text has this:
Forms A and C were exposed in 100% RH environment at RT for 6 days; the solids were subsequently analyzed using DSC and XRPD.
In FIGS. 1 and 17, the XRPD of sample of Form A (previous obtained form EA and IPA/MEK) before and after 6 days exposure to 100% RH are sketched. FIGS. 19 and 20 show the DSC scan of the same samples after exposure. […] FIGS. 18 and 21 show the result of the same treatment for Form C.

A short description of data set [4]: physchem. The note with it: thermodynamic from solid.
Experimental: Approximate solubility of the starting di-tosylate salt (Form A) was measured by gravimetry method. 100 mg of the solid was suspended in 10 vol of various solvents and stirred at RT and 50° C. for 3 days. The mother liquid was then used to measure the solubility.
Data set [5] is described as follows: Forms A and C re-slurry in pure solvents at RT (aging experiments, XRPD). The class given is physicochemical. The note with it: re-slurry of Forms A and C at RT; except in methanol. How it is done:
These experiments were performed to investigate potential transformation between Form A and C. The procedure of the experiments is shown below. • 15 mg Form A and 15 mg Form C were add into a 1.5 ml vial with magnetic stirrer. • 20 vol (600 ul) of various solvents was added into the vial • The suspensions were stir at RT for 5 days • Then filter and the solid was sent for XRPD (before and after drying in oven) and DSC

Data set [6] can be described thus: Solubility estimation by aliquot addition and Clarity temperature cycling.
The nature of data set [7]: Humidity stress of generated salts (75% relative humidity, 7 days, XRPD). The class given is physicochemical. The note with it: test for deliquescence, sample stressed for several days under 75% RH. How it is done:
Approximately 25 mg of generated salts of […] were added to vials and placed unsealed into a 75% relative humidity chamber (sealed cabinets with relative humidity conditions controlled by super-saturated salt solutions) at ambient temperature for 7 days prior to analysis by XRPD.

Experiment in data set [8]: not given
This is another data set of the same source.

Data set [9] in a line: physchem. Particulars: pH 1, simulated gastric fluid, thermodynamic from solid.

Turning to `CCc1nc2ccc(Cl)cn2c1C(=O)NCc1ccc(N2CCC(c3ccc(OC(F)(F)F)cc3)CC2)cc1.Cc1ccc(S(=O)(=O)O)cc1.Cc1ccc(S(=O)(=O)O)cc1` [6-chloro-2-ethyl-N-(4-(4-(4-(trifluoromethoxy)phenyl)piperidine-1-yl)benzyl)imidazo[1,2-a]pyridine-3-carboxamide ditosylate], in data set [1] (40° C. and 75% RH up to 6 months), the “stability under accelerated conditions” value is on record as “stable”. The long-term storage stability entry in data set [2] is given as “stable”.

As for `CCc1nc2ccc(Cl)cn2c1C(=O)NCc1ccc(N2CCC(c3ccc(OC(F)(F)F)cc3)CC2)cc1.Cc1ccc(S(=O)(=O)O)cc1.Cc1ccc(S(=O)(=O)O)cc1` [Form A, 6-chloro-2-ethyl-N-(4-(4-(4-(trifluoromethoxy)phenyl)piperidine-1-yl)benzyl)imidazo[1,2-a]pyridine-3-carboxamide ditosylate], in “DVS water absorption” (ditosylate), the “water absorption (DVS)” value was “around 0.35%”. Also, the Approximate solubility result is, setting by setting: (Acetone, 50° C.) “nil”; (Acetone, RT) “nil”; (Acetonitrile, 50° C.) “nil”; (Acetonitrile, RT) “nil”; (Dichloromethane (DCM), 50° C.) “nil”; (Dichloromethane (DCM), RT) “nil”. The Approximate solubility result is recorded as “nil” (EA, 50° C.); “nil” (EA, RT); “nil” (IPA, RT); “nil” (IPAC, 50° C.); “nil” (IPAC, RT); “nil” (MA, 50° C.). The Approximate solubility entry is “nil” (MA, RT); “nil” (Methul Isobutyl Ketone (MIBK), RT); “nil” (Methyl Ethyl Ketone (MEK), 50° C.); “nil” (Methyl Ethyl Ketone (MEK), RT); “nil” (Methyl tert-Butyl Ether (TBME), 50° C.); “nil” (Methyl tert-Butyl Ether (TBME), RT). Further, the Approximate solubility entry reads like this: (THF, 50° C.) “nil”; (THF, RT) “nil”; (Water, RT) “nil”. Also, the “crystalline form after exposure to 100% RH” value in data set [3] (ditosylate) is on record as “maintains its crystalline form; also recorded: no change to crystalline”. The solubility at 3 days in “physchem [4]” (IPA, 50 °C, organic solvent or mixture) stood at 3000 µg/mL; in “physchem [4]” (ethanol (EtOH), 50 °C, organic solvent or mixture), 7000 µg/mL; in “physchem [4]” (ethanol (EtOH), organic solvent or mixture), 1000 µg/mL; in the data set “physchem [4]” (methanol (MeOH), 50 °C, organic solvent or mixture), 275000 µg/mL; in “physchem [4]” (methanol (MeOH), organic solvent or mixture) it was 126000 µg/mL; in the data set “physchem [4]” (methyl isobutyl ketone (MIBK), 50 °C, organic solvent or mixture) it was 2000 µg/mL. The solubility at 3 days in “physchem [4]” (toluene, 50 °C, organic solvent or mixture) was 3000 µg/mL; in the data set “physchem [4]” (toluene, organic solvent or mixture), 1000 µg/mL; in “physchem [4]” (water, 50 °C), 3000 µg/mL. The “purity (HPLC)” value in [1] (40° C./75% RH, 6 months) is greater than 98%. Besides, the long-term storage stability entry in data set [2] (listed as Q203-ditosylate form A) is listed as “remains stable”. Also, the “Purity [%] (as measured by HPLC)” value in data set [2] (0 months), in data set [2] (6 months), in data set [2] (12 months), in data set [2] (24 months), in [2] (36 months) and in data set [2] (48 months) was greater than 98% in each case. Besides, in [2] (60 months), the “Purity [%] (as measured by HPLC)” value is greater than 98%. Also, in data set [5], the relative polymorph stability entry is reported as “more stable than Form C”.

As for `CCc1nc2ccc(Cl)cn2c1C(=O)NCc1ccc(N2CCC(c3ccc(OC(F)(F)F)cc3)CC2)cc1.Cc1ccc(S(=O)(=O)O)cc1.Cc1ccc(S(=O)(=O)O)cc1` [Form C], in “DVS water absorption”, the “water absorption (DVS)” value was “less than 0.3%”. The “crystalline form after exposure to 100% RH” value in data set [3] is “maintains its crystalline form; also recorded: crystal structure does not change”.

In the case of `CCc1nc2ccc(Cl)cn2c1C(=O)NCc1ccc(N2CCC(c3ccc(OC(F)(F)F)cc3)CC2)cc1.Cc1ccc(S(=O)(=O)O)cc1.Cc1ccc(S(=O)(=O)O)cc1` [Pat A], the “Aq. Sol” value in [6] (approximate values by aliquot addition on unbuffered water) and in data set [6] (approximate values measured by aliquot addition in unbuffered water) was less than 0.38 mg/mL each time. For the same compound, the “RH stress (20C/75RH)” value in data set [7] and in data set [7] (20C) was “stable” in each case.

For the compound `CCc1nc2ccc(Cl)cn2c1C(=O)NCc1ccc(N2CCC(c3ccc(OC(F)(F)F)cc3)CC2)cc1.Cc1ccc(S(=O)(=O)O)cc1` [pTSA salt, 6-chloro-2-ethyl-N-(4-(4-(4-(trifluoromethoxy)phenyl)piperidine-1-yl)benzyl)imidazo[1,2-a]pyridine-3-carboxamide mono-tosylate], the “solid form after slurrying in buffer (XRPD)” value is recorded as “remained the same pattern” in data set [8] (pH 1 buffer, listed as pTSA, mono-tosylate); “remained stable” in data set [8] (pH 1 buffer, mono-tosylate); “converted to freebase (type 28)” in [8] (pH 4.5 and above, mono-tosylate). The compound also yielded a solubility in “physchem [9]” of roughly 330 µg/mL.

For the compound `CCc1nc2ccc(Cl)cn2c1C(=O)NCc1ccc(N2CCC(c3ccc(OC(F)(F)F)cc3)CC2)cc1.O=P(O)(O)O` [phosphate salt, 6-chloro-2-ethyl-N-(4-(4-(4-(trifluoromethoxy)phenyl)piperidine-1-yl)benzyl)imidazo[1,2-a]pyridine-3-carboxamide mono-phosphate], the “solid form after slurrying in buffer (XRPD)” value is “not stable” in data set [8] (all buffers tested (pH 1, 4.5, 6.8, 7.5)); “converted to HCl Type 56” in data set [8] (pH 1 buffer, listed as Phosphate salt, mono-phosphate); “converted to a new HCl salt, Type 56” in data set [8] (pH 1 buffer, mono-phosphate); “converted to freebase” in data set [8] (pH 4.5 and above). In data set [8] (low pH, especially around pH1), the “solubility in comparison to the di-tosylate salt” value is listed as “better solubility”.
